Measurements: PMC2736342 (Biochemistry, 2009)
Read-outs that look alike come from different tables or passages of the source. Ends that are not written are not given here. Peptide text beside a SMILES is read from it. * marks the point of attachment. Biotin = O=C1N[C@H]2[C@H](CS[C@H]2CCCCC(=O)*)N1

Assays:
[1] = target: WT Gαi GDP (Rattus norvegicus, UniProt P10824, INS119HHHHHH); experiment: SPR binding to immobilized peptide, wild-type GDP; details: pH 7.4
[2] = target: I56C/Q333C Gαi GDP (Rattus norvegicus, UniProt P10824, I56C/INS119HHHHHH/Q333C); experiment: SPR binding to immobilized peptide, I56C/Q333C GDP; details: pH 7.4
[3] = target: D328R Gαi GDP (Rattus norvegicus, UniProt P10824, D328R/INS119HHHHHH); experiment: SPR binding to immobilized peptide, D328R GDP; details: pH 7.4
[4] = target: WT Gαi GDP •AlF4^− (Rattus norvegicus, UniProt P10824, INS119HHHHHH); experiment: SPR binding to immobilized peptide, wild-type GDP-AlF4^−; details: pH 7.4
[5] = target: I56C/Q333C Gαi GDP•AlF4^− (Rattus norvegicus, UniProt P10824, I56C/INS119HHHHHH/Q333C); experiment: SPR binding to immobilized peptide, I56C/Q333C GDP-AlF4^−; details: pH 7.4
[6] = target: D328R Gαi GDP•AlF4^− (Rattus norvegicus, UniProt P10824, D328R/INS119HHHHHH); experiment: SPR binding to immobilized peptide, D328R GDP-AlF4^−; details: pH 7.4
[7] = target: T1, wild-type Gαi1 subunit (rat, UniProt P10824 2-354); experiment: SPR
[8] = target: T2, D328R Gαi1 subunit (rat, UniProt P10824 2-354, D328R); experiment: SPR
[9] = target: T1, wild-type Gαi1 subunit; experiment: SPR; remark: listed apart in the source
[10] = target: T2, D328R Gαi1 subunit; experiment: SPR; remark: listed apart in the source

CSCC[C@H](NC(=O)[C@H](CC(C)C)NC(=O)[C@H](Cc1ccccc1)NC(=O)[C@H](CC(=O)O)NC(=O)[C@H](Cc1ccc(O)cc1)NC(=O)[C@H](Cc1c[nH]c2ccccc12)NC(=O)[C@@H](NC(=O)[C@@H](NC(=O)[C@H](CCCNC(=N)N)NC(=O)[C@@H](N)CO)C(C)C)[C@@H](C)O)C(=O)N[C@@H](CCC(=O)O)C(=O)N[C@@H](CC(=O)O)C(=O)N[C@H](C(=O)N[C@@H](CCCCN)C(=O)N[C@@H](CO)C(=O)N[C@@H](CCCNC(=N)N)C(=O)O)[C@@H](C)O [KB-752] (H-SRVTWYDFLMEDTKSR-OH)
koff [1]: 0.06 ± 0.01 s⁻¹
kon [1]: 21100 M⁻¹ s⁻¹
koff [2]: 0.22 ± 0.03 s⁻¹
kon [2]: 7750 M⁻¹ s⁻¹
koff [3]: 0.01 ± 0.001 s⁻¹
kon [3]: 8560 M⁻¹ s⁻¹

CC[C@H](C)[C@H](NC(=O)CNC(=O)[C@H](Cc1c[nH]cn1)NC(=O)[C@H](Cc1ccc(O)cc1)NC(=O)[C@H](Cc1ccc(O)cc1)NC(=O)CNC(=O)[C@H](CCCNC(=N)N)NC(=O)[C@H](CO)NC(=O)[C@@H](N)CO)C(=O)N[C@@H](Cc1c[nH]c2ccccc12)C(=O)N[C@H](C(=O)NCC(=O)N[C@@H](CCC(=O)O)C(=O)N[C@@H](CCC(=O)O)C(=O)NCC(=O)N[C@@H](CCCNC(=N)N)C(=O)N[C@@H](CC(C)C)C(=O)N[C@@H](CO)C(=O)N[C@@H](CCCNC(=N)N)C(=O)O)C(C)C [KB-1753] (H-SSRGYYHGIWVGEEGRLSR-OH)
koff [4]: 0.025 ± 0.001 s⁻¹
kon [4]: 22900 M⁻¹ s⁻¹
koff [5]: 0.006 ± 0.0008 s⁻¹
kon [5]: 16800 M⁻¹ s⁻¹
koff [6]: 0.003 ± 0.0004 s⁻¹
kon [6]: 8810 M⁻¹ s⁻¹

B1: peptide KB-752 (peptide)
peptide: Biotin-SRVTWYDFLMEDTKSR
Kd [7]: 2840 ± 810 nM
Kd [8]: 1280 ± 20 nM

B2: peptide KB-1753 (peptide)
peptide: Biotin-SSRGYYHGIWVGEEGRLSR
Kd [9]: 1100 ± 100 nM
Kd [10]: 260 ± 40 nM
